In PubChem BioAssay AID248 (DTP/NCI, 2004):
Inconclusive results and toxic doses are left out. Cut-off read from the data, not from the text of the source: active = T/C of 150% or more; inactive = T/C below 125%.

Test system: L1210 leukemia ip in BDF1 mice, survival T/C
Assay: NCI In Vivo Anticancer Drug Screen. Data for tumor model L1210 Leukemia (intraperitoneal) in B6D2F1 (BDF1) mice
Conditions: endpoint: mean survival time, higher = longer survival
Outline: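 Transplanted-tumor mice were given test agent; controls received vehicle only. Survival readings from the two groups were divided (treated over control).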

[1] = dose: 50.0 mg/kg/injection, schedule: Q01DX009 (ip), vehicle: saline
[2] = dose: 100.0 mg/kg/injection, schedule: Q01DX009 (ip), vehicle: saline
[3] = dose: 200.0 mg/kg/injection, schedule: Q01DX009 (ip), vehicle: saline
[4] = dose: 100.0 mg/kg/injection, schedule: Q01DX009 (ip), vehicle: Klucel (hydroxypropylcellulose) (HPC)
[5] = dose: 200.0 mg/kg/injection, schedule: Q01DX009 (ip), vehicle: Klucel (hydroxypropylcellulose) (HPC)
[6] = dose: 50.0 mg/kg/injection, schedule: Q01DX001 (ip), vehicle: carboxymethylcellulose (CMC)
[7] = dose: 100.0 mg/kg/injection, schedule: Q01DX001 (ip), vehicle: carboxymethylcellulose (CMC)

Measured: T/C

O=C(O)Cc1ccc(Cl)c(Cl)c1
inactive: [1] 94 % of control | [2] 105 % of control | [3] 108 % of control

CC1=CC(C)(C)NC(=S)N1
inactive: [4] 97 % of control | dose: 100.0 mg/kg/injection, schedule: Q04DX003 (ip), vehicle: saline 113 % of control | [5] 101 % of control | dose: 200.0 mg/kg/injection, schedule: Q04DX003 (ip), vehicle: saline 106 % of control | dose: 400.0 mg/kg/injection, schedule: Q01DX009 (ip), vehicle: Klucel (hydroxypropylcellulose) (HPC) 98 % of control | dose: 400.0 mg/kg/injection, schedule: Q04DX003 (ip), vehicle: saline 107 % of control

CCCCCCCCCCCCCCCCSC(=N)N
inactive: dose: 100.0 mg/kg/injection, schedule: Q04DX003 (ip), vehicle: carboxymethylcellulose (CMC) 91 % of control | dose: 200.0 mg/kg/injection, schedule: Q04DX003 (ip), vehicle: carboxymethylcellulose (CMC) 93 % of control

O=C1C=CC(=O)c2nc(-c3ccccn3)c(-c3ccccn3)nc21
inactive: dose: 1.56 mg/kg/injection, schedule: Q04DX003 (ip), vehicle: Klucel (hydroxypropylcellulose) (HPC) 92 % of control | dose: 3.12 mg/kg/injection, schedule: Q04DX003 (ip), vehicle: Klucel (hydroxypropylcellulose) (HPC) 93 % of control | dose: 6.25 mg/kg/injection, schedule: Q04DX003 (ip), vehicle: Klucel (hydroxypropylcellulose) (HPC) 90 % of control | dose: 18.0 mg/kg/injection, schedule: Q01DX009 (ip), vehicle: Klucel (hydroxypropylcellulose) (HPC) 101 % of control | dose: 28.0 mg/kg/injection, schedule: Q01DX009 (ip), vehicle: Klucel (hydroxypropylcellulose) (HPC) 100 % of control | dose: 40.0 mg/kg/injection, schedule: Q01DX009 (ip), vehicle: Klucel (hydroxypropylcellulose) (HPC) 93 % of control

c1ccc2c(C3CO3)c3ccc4ccccc4c3cc2c1 (centres undefined)
inactive: dose: 100.0 mg/kg/injection, schedule: Q04DX002 (ip), vehicle: other 113 % of control | dose: 400.0 mg/kg/injection, schedule: Q04DX002 (ip), vehicle: other 120 % of control
active: dose: 200.0 mg/kg/injection, schedule: Q04DX002 (ip), vehicle: other 179 % of control

CC(=O)c1ccc(O)c(CN(C2CCCCC2)C2CCCCC2)c1O
inactive: dose: 100.0 mg/kg/injection, schedule: Q01DX001 (ip), vehicle: saline 100 % of control | dose: 200.0 mg/kg/injection, schedule: Q01DX001 (ip), vehicle: saline 93 % of control | dose: 400.0 mg/kg/injection, schedule: Q01DX001 (ip), vehicle: saline 93 % of control

O=C(OC(CC[P+](c1ccccc1)(c1ccccc1)c1ccccc1)(C(=O)c1ccccc1)c1ccccc1)c1ccccc1 (centres undefined)
inactive: dose: 3.0 mg/kg/injection, schedule: Q04DX003 (ip), vehicle: saline 98 % of control | dose: 6.0 mg/kg/injection, schedule: Q04DX003 (ip), vehicle: saline 103 % of control | dose: 12.0 mg/kg/injection, schedule: Q04DX003 (ip), vehicle: saline 94 % of control | dose: 15.0 mg/kg/injection, schedule: Q01DX001 (ip), vehicle: carboxymethylcellulose (CMC) 90 % of control | dose: 30.0 mg/kg/injection, schedule: Q01DX001 (ip), vehicle: carboxymethylcellulose (CMC) 98 % of control | dose: 60.0 mg/kg/injection, schedule: Q01DX001 (ip), vehicle: carboxymethylcellulose (CMC) 95 % of control | dose: 75.0 mg/kg/injection, schedule: Q01DX001 (ip), vehicle: carboxymethylcellulose (CMC) 88 % of control

CN(C)CCCNc1ccc(O)c2c1C(=O)c1ccccc1C2=O
inactive: [1] 100 % of control | [2] 95 % of control | [3] 106 % of control | dose: 400.0 mg/kg/injection, schedule: Q01DX009 (ip), vehicle: saline 105 % of control

CCOc1ccccc1/C=C1\C=C(CC)SC1=O
inactive: dose: 100.0 mg/kg/injection, schedule: Q01DX001 (ip), vehicle: saline with Tween-80 91 % of control | dose: 200.0 mg/kg/injection, schedule: Q01DX001 (ip), vehicle: saline with Tween-80 94 % of control | dose: 400.0 mg/kg/injection, schedule: Q01DX001 (ip), vehicle: saline with Tween-80 91 % of control

C[N+](C)(C)Cc1c(C(O)(c2ccccc2)c2ccccc2)ccc2ccccc12
inactive: [6] 94 % of control | [7] 96 % of control

Cc1nc2ccccc2n(O)c1=O
inactive: dose: 50.0 mg/kg/injection, schedule: Q01DX009 (ip), vehicle: Klucel (hydroxypropylcellulose) (HPC) 97 % of control | [4] 93 % of control | [5] 89 % of control

NC(CSC(c1ccccc1)(c1ccccc1)c1ccc(F)cc1)C(=O)O (centres undefined)
inactive: dose: 5.5 mg/kg/injection, schedule: Q01DX009 (ip), vehicle: saline 117 % of control | dose: 8.2 mg/kg/injection, schedule: Q01DX009 (ip), vehicle: saline 117 % of control | dose: 100.0 mg/kg/injection, schedule: Q01DX009 (ip), vehicle: other 100 % of control
active: [1] 161 % of control

O=S(=O)(c1ccccc1)n1ccc2ccccc21
inactive: dose: 100.0 mg/kg/injection, schedule: Q04DX002 (ip), vehicle: saline with Tween-80 93 % of control | dose: 200.0 mg/kg/injection, schedule: Q04DX002 (ip), vehicle: saline with Tween-80 97 % of control | dose: 400.0 mg/kg/injection, schedule: Q04DX002 (ip), vehicle: saline with Tween-80 97 % of control

NNc1ncnc2c1ncn2C1OC(CO)C(O)C1O (centres undefined)
active: dose: 100.0 mg/kg/injection, schedule: Q01DX Z (ip), vehicle: other 152 % of control
inactive: dose: 1.0 mg/kg/injection, schedule: Q01DX015 (ip), vehicle: carboxymethylcellulose (CMC) 106 % of control | dose: 3.0 mg/kg/injection, schedule: Q01DX015 (ip), vehicle: carboxymethylcellulose (CMC) 109 % of control | dose: 6.0 mg/kg/injection, schedule: Q01DX015 (ip), vehicle: carboxymethylcellulose (CMC) 106 % of control | dose: 12.0 mg/kg/injection, schedule: Q01DX015 (ip), vehicle: carboxymethylcellulose (CMC) 97 % of control | dose: 20.0 mg/kg/injection, schedule: Q01DX015 (ip), vehicle: carboxymethylcellulose (CMC) 106 % of control | dose: 25.0 mg/kg/injection, schedule: Q01DX015 (ip), vehicle: carboxymethylcellulose (CMC) 118 % of control | dose: 30.0 mg/kg/injection, schedule: Q01DX015 (ip), vehicle: carboxymethylcellulose (CMC) 108 % of control | dose: 44.0 mg/kg/injection, schedule: Q01DX015 (ip), vehicle: carboxymethylcellulose (CMC) 122 % of control | [6] 108 % of control | dose: 50.0 mg/kg/injection, schedule: Q01DX Z (ip), vehicle: other 122 % of control | dose: 75.0 mg/kg/injection, schedule: Q01DX Z (ip), vehicle: other 121 % of control | [7] 116 % of control | dose: 100.0 mg/kg/injection, schedule: Q01DX015 (ip), vehicle: carboxymethylcellulose (CMC) 124 % of control | dose: 150.0 mg/kg/injection, schedule: Q01DX015 (ip), vehicle: carboxymethylcellulose (CMC) 86 % of control | dose: 150.0 mg/kg/injection, schedule: Q01DX Z (ip), vehicle: other 95 % of control | dose: 186.75 mg/kg/injection, schedule: Q01DX015 (ip), vehicle: gum acacia 83 % of control | dose: 200.0 mg/kg/injection, schedule: Q01DX001 (ip), vehicle: carboxymethylcellulose (CMC) 111 % of control | dose: 220.0 mg/kg/injection, schedule: Q01DX015 (ip), vehicle: carboxymethylcellulose (CMC) 95 % of control

COc1cc2cnc3c4cc(OC)c(OC)cc4ccc3c2cc1OC
inactive: dose: 80.0 mg/kg/injection, schedule: Q01DX009 (ip), vehicle: saline 88 % of control | dose: 120.0 mg/kg/injection, schedule: Q01DX009 (ip), vehicle: saline 90 % of control | dose: 240.0 mg/kg/injection, schedule: Q01DX009 (ip), vehicle: saline 91 % of control

COC(OC)c1[nH]c(=S)[nH]c(=O)c1Cc1ccc(Br)cc1
inactive: dose: 100.0 mg/kg/injection, schedule: Q04DX002 (ip), vehicle: Klucel (hydroxypropylcellulose) (HPC) 97 % of control | dose: 200.0 mg/kg/injection, schedule: Q04DX002 (ip), vehicle: Klucel (hydroxypropylcellulose) (HPC) 94 % of control | dose: 400.0 mg/kg/injection, schedule: Q04DX002 (ip), vehicle: Klucel (hydroxypropylcellulose) (HPC) 105 % of control
